Data published in US20220133702A1, “CYSTIC FIBROSIS TRANSMEMBRANE CONDUCTANCE REGULATOR MODULATORS FOR TREATING AUTOSOMAL DOMINANT POLYCYSTIC KIDNEY DISEASE” (The Johns Hopkins University, priority 2020, published 2022).

Columns and labels:
[1] = test system: GADD153; test: GADD153 immunostaining of kidney sections; assay type: in vivo; details: PN21 mouse kidney sections, vs DMSO
From the text: FIG. 12A, FIG. 12B, and FIG. 12C show GADD153 expression in kidneys of Pkd1fllfl; Pax8^rtTA; TetO-cre mice. Immunofluorescence images representing the GADD expression (green) in DMSO (FIG. 12A) or VX-809 (FIG. 12B) treated PN21 Pkd1^fl/fl mouse. Columns (FIG. 12C) represent % area of GADD immunopositive (green) cells in DMSO or VX-809 treated PN21 Pkd1^fl/fl mouse kidney sections. Data are expressed as mean±1 SEM of DMSO (vehicle)-treated (n=4) and VX-809-treated (n=4) mice. Statistical analysis was performed using a 2-tailed Student t-test. DMSO, dimethyl sulfoxide. Kidneys were fixed in 4% paraformaldehyde as described (62). Used here was the GADD153 antibody (Sc-7351), goat antirabbit (A21429, AlexaFluor 555, 1:1,000; Life Technologies, Carlsbad, Calif.) and DAPI (H-1200; Vector Laboratories, Burlingame, Calif.). Pictures were acquired with a Zeiss microscope equipped a 20× objective. Cells positive for GADD153 and the total number of cells were measured with ImageJ. The results are expressed as percentages;
Given that VX-809 alters an ensemble of Hsps, it was evaluated whether VX-809 alters proteins associated with ER stress. To address this question, the levels of three ER stress-associated proteins were measured, 78-kDa glucose-regulated protein (GRP78), ER oxidoreductin 1 (Ero1) and DNA damage-inducible protein 3 (GADD153), also known as C/EBP homologous protein (CHOP) (37). […]

[2] = test system: PC2 in Pkd1^fl/fl; Pax8^rtTA; TetO-cre mice; test: Immunoblot of PC2 protein in kidney tissue, PC1-null model; assay type: in vivo, mouse; details: doxycycline plus VX-809
Protocol: (§1) The levels of PC2 protein were analyzed in two mouse models of ADPKD: Pkd1^fl/fl; Pax8^rtTA; TetO-cre, which is PC1 null, and the Pkd1^R3277C/R3277C (pkd1^RC/RC) which has a missense mutation in PC1. Pkd1^RC/RC mice develop a consistent, slowly progressing polycystic kidney disease. Pkd1^RC/RC mice were treated daily with VX-809, beginning at one month, and euthanized at 6 months.
Mice were treated without doxycycline (ND), with doxycycline plus DMSO (D), or with doxycycline plus VX809 (D+VX809), as indicated. Three mice were analyzed for each treatment.
In the Pkd1^fl/fl mice, doxycycline-induced cyst formation increases PC2 protein.

[3] = test system: PC2 in Pkd1^RC/RC mice; test: Immunoblot of PC2 protein in kidney tissue, missense model; assay type: in vivo, mouse; details: treated daily from one month to 6 months
Protocol: as §1
Wild-type mice were treated without doxycycline (Wt), and Pkd1^RC/RC mice were treated with doxycycline plus DMSO (RC) or with doxycycline plus VX809 (RC+VX809), as indicated. Three mice were analyzed for each treatment.
In Pkd1^RC/RC mice, doxycycline-induced cyst formation decreases PC2 protein.

[4] = test system: PN cells; test: BrdU cell proliferation assay; assay type: cell-based, mouse; details: 1 and 10 μM, vs DMSO-treated cells
From the text: FIG. 3A, FIG. 3B, FIG. 3C, and FIG. 3D show cell proliferation is reduced by VX-809. (FIG. 3A-FIG. 3B) Proliferation in kidneys of Pkd1^fl/fl; Pax8^rtTA; TetO-cre mice. Representative images of Ki67 (a cellular marker for proliferation) staining of PN21 kidney sections from DMSO- and VX-809-treated mice. Arrows indicate Ki67-positive cells. Pictures were acquired with a Zeiss microscope equipped with 20× objective. (FIG. 3C) Summary data for Ki67-positive cells. Columns represent averages±standard errors of DMSO (vehicle)-treated (n=3) and VX-809-treated (n=3) mice. Statistical analysis was performed using a two-tailed Student's t test. (FIG. 3D) Proliferation in PN cells. PN cells were treated with VX-809 or DMSO). The bromodeoxyuridine (BrdU) concentration in the cells was measured by using a BrdU cell proliferation assay kit (Millipore Sigma#2750) according to the manufacturer's protocol. Columns represent averages±SEs of the OD of BrdU at 450/550 […]. Data were analyzed using Student's t-test, with n=5-7. Methods were described previously (62). *P>0.05; **P<0.01;
A hallmark of the cysts in ADPKD is an increase in proliferation in response to cAMP. Therefore, it was determined whether VX-809 would affect proliferation.

[5] = test system: NHE3 in PN cells; test: NHE3 expression; assay type: cell-based, mouse; details: treated PN cells vs PN cells
Protocol: FIG. 14A and FIG. 14B show NHE3 expression in PN cells treated with VX-809.
The expression and activity of […] were evaluated. Specifically, NHE3 expression was evaluated in PN cells that were treated with VX-809. […] was also studied in PN, PH, and PN cells treated with VX-809. […] Next, NHE3 activity was evaluated in PN/PH cells or PN cells treated with VX-809. NHE3 activity was increased in PN cells treated with VX-809, as compared to PN cells (FIG. 16A). NHE3 activity was higher in control PH cells than in PN cells (FIG. 16B). […] NHE3 activity was increased in both VX-809 treated PN cells and control PH cells, as compared to control PN cells (FIG. 16C).

Cc1ccc(NC(=O)C2(c3ccc4c(c3)OC(F)(F)O4)CC2)nc1-c1cccc(C(=O)O)c1 [VX-809, lumacaftor]
GADD153 immunostaining [1]: strong reduction | PC2 protein expression (normalized to vinculin) [2]: restores PC2 expression to near-normal values | PC2 protein expression (normalized to vinculin) [3]: higher levels of PC2 expression | cell proliferation (BrdU) [4]: significantly inhibit cell proliferation | NHE3 expression [5]: significantly increased
